{"source": "ChEMBL document CHEMBL1150028", "about": "“-((Tetronoyl)oxy)- and -((tetramoyl)oxy)methyl ketone inhibitors of the interleukin-1 converting enzyme (ICE)” (Bioorg Med Chem Lett, 1997)", "key": {"Caspase-1 (Homo sapiens)": {"molecular_target": "T1, Caspase-1 (Homo sapiens) (UniProt P29466)", "T1 sequence (whole entry)": "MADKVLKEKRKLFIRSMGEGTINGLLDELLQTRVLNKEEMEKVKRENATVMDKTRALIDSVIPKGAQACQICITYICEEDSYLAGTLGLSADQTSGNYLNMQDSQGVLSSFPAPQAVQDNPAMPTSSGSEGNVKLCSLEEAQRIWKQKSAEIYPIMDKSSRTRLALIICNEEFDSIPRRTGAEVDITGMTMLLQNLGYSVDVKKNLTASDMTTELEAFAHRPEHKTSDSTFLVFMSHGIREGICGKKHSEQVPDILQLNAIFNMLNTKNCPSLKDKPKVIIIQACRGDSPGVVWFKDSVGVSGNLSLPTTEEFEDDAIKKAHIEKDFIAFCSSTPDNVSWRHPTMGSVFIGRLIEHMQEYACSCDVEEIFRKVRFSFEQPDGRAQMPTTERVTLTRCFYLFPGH", "experiment": "Inhibitory activity against IL-1 beta converting enzyme was determined"}, "[1]": {"experiment": "Stability of compound was determined by its half life period", "type": "physicochemical"}}}
{"smiles": "CC(C)[C@H](NC(=O)OCc1ccccc1)C(=O)N[C@@H](CC(=O)O)C(=O)COC1=C(Cc2ccccc2)C(=O)OC1", "values": [{"measurement": "K obs / 1", "setting": "Caspase-1 (Homo sapiens)", "result": 21200, "unit": "M⁻¹ s⁻¹"}]}
{"smiles": "O=C(O)C[C@H](NC(=O)OCc1ccccc1)C(=O)COC1=CC(=O)OC1", "values": [{"measurement": "K obs / 1", "setting": "Caspase-1 (Homo sapiens)", "result": 188, "unit": "M⁻¹ s⁻¹"}]}
{"smiles": "COc1ccc(C2=C(OCC(=O)[C@H](CC(=O)O)NC(=O)OCc3ccccc3)COC2=O)cc1", "values": [{"measurement": "K obs / 1", "setting": "Caspase-1 (Homo sapiens)", "result": 4000, "unit": "M⁻¹ s⁻¹"}]}
{"smiles": "O=C(O)C[C@H](NC(=O)OCc1ccccc1)C(=O)COC1=C(c2ccc(Cl)c(Cl)c2)C(=O)OC1", "values": [{"measurement": "K obs / 1", "setting": "Caspase-1 (Homo sapiens)", "result": 640, "unit": "M⁻¹ s⁻¹"}]}
{"smiles": "O=C(O)C[C@H](NC(=O)OCc1ccccc1)C(=O)COC1=C(c2ccccc2)C(=O)OC1", "values": [{"measurement": "half-life", "setting": "[1]", "result": 0.86, "unit": "h"}, {"measurement": "K obs / 1", "setting": "Caspase-1 (Homo sapiens)", "result": 5700, "unit": "M⁻¹ s⁻¹"}]}
{"smiles": "CC(C)[C@H](NC(=O)OCc1ccccc1)C(=O)N[C@@H](CC(=O)O)C(=O)COC1=C(c2ccccc2)C(=O)OC1", "values": [{"measurement": "K obs / 1", "setting": "Caspase-1 (Homo sapiens)", "result": 27900, "unit": "M⁻¹ s⁻¹"}]}
{"smiles": "Cc1ccc(C2=C(OCC(=O)[C@H](CC(=O)O)NC(=O)OCc3ccccc3)COC2=O)cc1", "values": [{"measurement": "K obs / 1", "setting": "Caspase-1 (Homo sapiens)", "result": 4500, "unit": "M⁻¹ s⁻¹"}]}
{"smiles": "O=C(O)C[C@H](NC(=O)OCc1ccccc1)C(=O)COC1=C(c2ccccc2)C(=O)CC1", "values": [{"measurement": "half-life", "setting": "[1]", "result": 3.9, "unit": "h"}, {"measurement": "K obs / 1", "setting": "Caspase-1 (Homo sapiens)", "result": 3070, "unit": "M⁻¹ s⁻¹"}]}
{"smiles": "O=C(O)C[C@H](NC(=O)OCc1ccccc1)C(=O)COC1=C(Cc2ccccc2)C(=O)OC1", "values": [{"measurement": "half-life", "setting": "[1]", "result": 9.8, "unit": "h"}, {"measurement": "K obs / 1", "setting": "Caspase-1 (Homo sapiens)", "result": 2850, "unit": "M⁻¹ s⁻¹"}]}
{"smiles": "O=C(O)C[C@H](NC(=O)OCc1ccccc1)C(=O)COC1=C(c2ccc(Cl)cc2)C(=O)OC1", "values": [{"measurement": "K obs / 1", "setting": "Caspase-1 (Homo sapiens)", "result": 4100, "unit": "M⁻¹ s⁻¹"}]}
{"smiles": "O=C(O)C[C@H](NC(=O)OCc1ccccc1)C(=O)COC1=C(Cl)C(=O)OC1", "values": [{"measurement": "K obs / 1", "setting": "Caspase-1 (Homo sapiens)", "result": "< 25", "unit": "M⁻¹ s⁻¹"}]}
{"smiles": "CC1(C)OC(=O)C(c2ccccc2)=C1OCC(=O)[C@H](CC(=O)O)NC(=O)OCc1ccccc1", "values": [{"measurement": "K obs / 1", "setting": "Caspase-1 (Homo sapiens)", "result": 260, "unit": "M⁻¹ s⁻¹"}]}
{"smiles": "CC(C)[C@H](NC(=O)OCc1ccccc1)C(=O)N[C@@H](CC(=O)O)C(=O)COC(=O)c1c(Cl)cccc1Cl", "values": [{"measurement": "K obs / 1", "setting": "Caspase-1 (Homo sapiens)", "result": 41000, "unit": "M⁻¹ s⁻¹"}]}
{"smiles": "CC(C)[C@H](NC(=O)OCc1ccccc1)C(=O)N[C@@H](CC(=O)O)C(=O)COC1=C(c2ccccc2)C(=O)NC1", "values": [{"measurement": "half-life", "setting": "[1]", "result": 95, "unit": "h"}, {"measurement": "K obs / 1", "setting": "Caspase-1 (Homo sapiens)", "result": 8500, "unit": "M⁻¹ s⁻¹"}]}
{"smiles": "CC(C)[C@H](NC(=O)OCc1ccccc1)C(=O)N[C@@H](C)C(=O)N[C@@H](CC(=O)O)C(=O)COC1=C(Cc2ccccc2)C(=O)OC1", "values": [{"measurement": "half-life", "setting": "[1]", "result": 20, "unit": "h"}]}
{"smiles": "O=C(O)C[C@H](NC(=O)OCc1ccccc1)C(=O)COC(=O)c1c(Cl)cccc1Cl", "values": [{"measurement": "K obs / 1", "setting": "Caspase-1 (Homo sapiens)", "result": 7100, "unit": "M⁻¹ s⁻¹"}]}
